Measured values: patent publication US20240197666A1, “DITERPENOID COMPOUNDS THAT ACT ON PROTEIN KINASE C (PKC)” (K-Gen Therapeutics, Inc., priority 2021, published 2024)
Read-outs that look alike come from different tables or passages of the source.

How the values were obtained:
C1b domain of human PKCε = molecular target: T1, C1b domain of human PKCε (Homo sapiens, UniProt Q02156); test: biochemical; type: binding; details: 3H-PDBu competition
T1 construct: Genes encoding C1b domains of human PKCα, δ, ε, θ, and PKD1 (PKCμ) were synthesized; made in house; host or cells: E. coli BL21(DE3)
T1 sequence (Q02156 242-292 limits assumed): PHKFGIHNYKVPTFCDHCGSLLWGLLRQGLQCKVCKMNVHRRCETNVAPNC
Summary of the method: (§1)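 GST-C1b (human, E. coli-expressed) + 3H-PDBu + compound; 37° C 10 min shaking, then ice 20 min. Filter capture, scintillation count. IC50 → Ki via Cheng-Prusoff, per-prep measured Kd.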

C1b domain of human PKCδ = molecular target: T2, C1b domain of human PKCδ (Homo sapiens, UniProt Q05655); test: biochemical; type: binding; details: 3H-PDBu competition
T2 construct: Genes encoding C1b domains of human PKCα, δ, ε, θ, and PKD1 (PKCμ) were synthesized; made in house; host or cells: E. coli BL21(DE3)
T2 sequence (Q05655 230-280 limits assumed): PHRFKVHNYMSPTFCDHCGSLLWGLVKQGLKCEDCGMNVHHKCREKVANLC
Summary of the method: as §1

PANC1 cells = test: Sphere formation assay; type: cell-based; details: Homo sapiens, PANC-1, read-out: concentration exhibiting at least 50% inhibition on the sphere forming efficiency
Experimental: A group of diterpenoid compounds of the present disclosure were tested to assess their effects on blocking formation of spheres from cancer cell lines such as PANC1, a K-Ras mutant pancreatic cell line. Briefly, PANC1 cells were harvested, re-suspended as single cell suspensions, counted and seeded into Ultra Low Attachment Culture 96-well plate (Corning, Cat #3474) at 100 cells/well in 100 μl of complete media (with 10% FBS) containing 2% Matrigel (Corning, Cat #354234) and DMSO or compounds. Six replicates per condition were seeded. The seeded cells were placed in the 37° C. tissue culture incubator. 10 μl of low serum containing media (with 0.1% FBS) was added to each well every week. Spheres formed after 3-4 weeks were counted. Sphere forming efficiency was expressed as percentage of # of spheres/ # of cells seeded.

[1] = system: NFκB-driven transcription in HeLa-NFκB luciferase reporter cell line; test: NFκB luciferase reporter assay; details: Homo sapiens, HeLa, 16 h, read-out: NFκB-luc HeLa cells EC50 (μM)
HL-60 (Leukemia) = test: Proliferation of HL-60; type: cell-based; details: for IC50: Homo sapiens
KP-4 (Pancreatic) = test: Proliferation of KP-4; type: cell-based; details: read-out: IC50 KP-4 (Pancreatic)
Experimental: (§2) The diterpenoid compounds were tested in A549, a non-small cell lung cancer cell line harboring a K-Ras activating mutation. Briefly, A549 cells at a density of 1,000 cells/well were seeded in 96-well plates and incubated at 37° C. for 24 hours. A series of different concentrations of compound stocks (500×) were prepared by 3-fold serial dilution in DMSO. These compounds were further diluted in culture media and then added to cells so that the final DMSO concentration was not exceeding 0.25%. After 96 hours of incubation, 50 μL of CellTiter Glo reagent (Promega) was added to each well and luminescence was measured after 10 minutes using EnVision (PerkinElmer). Luminescence from cells treated with DMSO alone was set as Max and % of inhibition was calculated as follows: Inhibition %=(Max-Sample value)/Max×100. Data was analyzed using XL-fit software (ID Business Solutions Ltd.) and IC50, relative IC50, and % of top inhibition was calculated. Some of the compounds in this disclosure were very potent in blocking proliferation of A549 lung cancer cells at low nM range. In addition, potency of inhibiting A549 proliferation correlated well with its binding affinity to PKCs for this series of compounds. In other words, higher affinity binders had stronger inhibitory effects on A549 proliferation. This further support the notion that activation, rather than inhibition, of certain PKC isoforms is required to block proliferation of cancer cells, some of which may harbor K-Ras mutations. This is in sharp contrast to previous literature and common belief that inhibition of PKC is necessary to block cancer cell growth (Kang, 2014, New Journal of Science, 2014:1-36). Data presented here is in agreement with recent findings that many loss-of-function but not gain-of-function mutations of PKC isoforms have been identified in many human cancers (Antal et al., 2015, Cell, 160:489-502).
(§3) The compounds in this disclosure were tested for their potency in blocking proliferation of a few other cancer cells lines, including K-Ras mutant pancreatic cell lines Panc2.13 and KP-4, leukemia cell line HL-60, and lymphoma cell lines Namalwa and Mino. Similar procedures as in Example 67 were followed. Initial cell numbers seeded in 96-well plates were different for different cell lines: 3000 cells/well for Panc2.13; 800-1000 cells/well for KP-4; 5000 cells/well for HL-60; 5000-10000 cells/well for Namalwa and Mino. A ratio of (IC50 of K101)/(IC50 of compound) (data in parenthesis in Table 5) was used to normalize the compound potency from different assay batches to a common comparator K101.

A549 cell line = test: Proliferation of A549 (CellTiter Glo); type: cell-based; details: Homo sapiens, A549, 96 h, read-out: IC50 μM (A549 Cell Line)
Summary of the method: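 Compound effect on proliferation was read as CellTiter Glo luminescence after 96 h exposure to a 3-fold dilution series (≤0.25% DMSO). A549 cells, which carry activating K-Ras, were plated at 1,000/well one day before dosing. IC50, relative IC50 and maximal inhibition were fitted from % inhibition versus DMSO control.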

Mino (Lymphoma) = test: Proliferation of Mino; type: cell-based; details: for IC50: Homo sapiens, MINO, read-out: IC50 Mino (Lymphoma)
Summary of the method: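 Luminescent ATP read-out (CellTiter Glo) after 96 h compound exposure gave % inhibition relative to DMSO-treated cells, from which IC50 was fitted. Seeding densities were line-specific, from 800 to 10000 cells/well. Potency across batches was normalised to reference compound K101.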

Panc2.13 (Pancreatic) = test: Proliferation of Panc2.13; type: cell-based; details: for IC50: read-out: IC50 Panc2.13 (Pancreatic)
Experimental: as §2, §3

Namalwa (Lymphoma) = test: Proliferation of Namalwa; type: cell-based; details: for IC50: read-out: IC50 Namalwa (Lymphoma)
Summary of the method: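 Proliferation was measured in the K-Ras mutant pancreatic lines and in HL-60 and Namalwa cells. These were plated at densities set per line and left 24 h before compound was added. After 96 h with serially diluted compound, viability was read by CellTiter Glo and IC50 derived.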

[2] = system: phosphorylation of PKCμ, PKCδ and Erk1/2 in A549 lung cancer cells; test: Western blot of activation of PKC and downstream target protein in A549 cells; type: cell-based; details: 30 minutes
Experimental: According to the methods described in patent (WO/2017/083783) A549 lung cancer cells (˜3 million cells) were seeded in 10 cm tissue culture dishes (or ˜1 million cells in 6 cm dish) and grown overnight. Cells were then treated with different drugs at indicated concentrations for 30 minutes. Cell lysate preparation, protein quantitation, SDS-PAGE, and Western blotting procedures are described (WO/2017/083783). β-actin or Vinculin was used as loading controls. Imagequant LAS4000 (GE) was used to scan membranes if secondary antibodies anti-mouse IgG HRP conjugate or anti-rabbit IgG HRP conjugate (dilutions from 1:2000-1:10000) were used. For ProteinSimple Wes system, manufacture's procedure was followed (ProteinSimple 12-230 kDa Wes Separation Module) for sample preparation, loading, running, and data analysis.
Phosphorylation of these sites has been linked to acute activation or catalytic activity of the PKC isoforms and Erk1/2. High level of phosphorylation indicates strong activation.
A subset of the diterpenoid compounds with good binding affinity to novel PKC isoforms and PKCμ was tested at two different concentrations in A549 cells to assess activation of PKCμ, PKCδ, and Erk1/2 by Western blot analysis. In addition to the phospho-specific antibodies described above, an additional phospho-specific antibody P-PKCδ (S299) (Abcam cat #133456) was also used. This antibody has been shown in the literature (Durgan et al., FEBS Lett. 2007, 581(18):3377-81, Novel phosphorylation site markers of protein kinase C delta activation) to be able to detect activation of PKCδ. K-101 (prostratin, 1 μM) was included as reference compounds.

C1b domain of human PKCθ = molecular target: T3, C1b domain of human PKCθ (Homo sapiens, UniProt Q04759); test: biochemical; type: binding; details: 3H-PDBu competition
T3 construct: Genes encoding C1b domains of human PKCα, δ, ε, θ, and PKD1 (PKCμ) were synthesized; made in house; host or cells: E. coli BL21(DE3)
T3 sequence (Q04759 231-281 limits assumed): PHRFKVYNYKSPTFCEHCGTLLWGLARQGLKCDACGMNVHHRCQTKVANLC
Summary of the method: as §1

[3] = HL-60, read-out: IC50 HL-60 (Leukemia)

SMILES	Ki (C1b domain of human PKCε)	IC50 (PANC1 cells)	EC50 [1]	ratio (IC50 of K101)/(IC50 of compound) HL-60 (HL-60 (Leukemia))	IC50 (KP-4 (Pancreatic))	IC50 (A549 cell line)	ratio (IC50 of K101)/(IC50 of compound) Mino (Mino (Lymphoma))	IC50 (Mino (Lymphoma))	ratio (IC50 of K101)/(IC50 of compound) Panc2.13 (Panc2.13 (Pancreatic))	IC50 (Panc2.13 (Pancreatic))	ratio (IC50 of K101)/(IC50 of compound) Namalwa (Namalwa (Lymphoma))	phosphorylation of PKCμ, PKCδ and Erk1/2 ([2]; 3 μM)	further results
CC1=C[C@H]2[C@@]3(O)[C@H](C)C[C@]4(OC(=O)C(C)(C)C)[C@H]([C@@H]3C=C(CO)C[C@]2(O)C1=O)C4(C)C	10 to 30 nM	≤ 150 nM	0.06 to 0.1 µM	5.29	100 to 200 nM	0.06 to 0.1 µM	6.82	10 to 30 nM	6.29	100 to 200 nM	1.38	–	Ki (C1b domain of human PKCδ): 10 to 30 nM; IC50 (HL-60 (Leukemia); HL-60, 96 h, read-out: IC50 HL-60 (Leukemia)): 100 to 600 nM; IC50 (Namalwa (Lymphoma)): 30 to 60 nM
CC1=C[C@H]2[C@@]3(O)[C@H](C)C[C@]4(OC(=O)CCc5ccncc5)[C@H]([C@@H]3C=C(CO)C[C@]2(O)C1=O)C4(C)C	–	–	–	–	–	1 to 2 µM	–	–	–	–	–	induced phosphorylation	–
CC1=C[C@H]2[C@@]3(O)[C@H](C)C[C@]4(OC(=O)CCc5ccccn5)[C@H]([C@@H]3C=C(CO)C[C@]2(O)C1=O)C4(C)C	–	–	–	–	–	0.6 to 1 µM	–	–	–	–	–	induced phosphorylation	–
CC1=C[C@H]2[C@@]3(O)[C@H](C)C[C@]4(OC(=O)[C@@H](N)CCc5ccccc5)[C@H]([C@@H]3C=C(CO)C[C@]2(O)C1=O)C4(C)C	–	–	0.1 to 0.2 µM	3.21	100 to 200 nM	0.1 to 0.2 µM	3.18	10 to 30 nM	4.28	200 to 600 nM	0.93	–	Ki (C1b domain of human PKCθ): 10 to 30 nM; IC50 (HL-60 (Leukemia); [3]): 100 to 200 nM; IC50 (Namalwa (Lymphoma); 96 h): 100 to 600 nM
CC1=C[C@H]2[C@@]3(O)[C@H](C)C[C@]4(OC(=O)[C@H](N)Cc5ccccc5)[C@H]([C@@H]3C=C(CO)C[C@]2(O)C1=O)C4(C)C	–	–	–	–	–	1 to 2 µM	–	–	–	–	–	induced phosphorylation	–
CC1=C[C@H]2[C@@]3(O)[C@H](C)C[C@]4(OC(=O)[C@@H](N)CCC5CCCCC5)[C@H]([C@@H]3C=C(CO)C[C@]2(O)C1=O)C4(C)C	10 to 30 nM	≤ 150 nM	0.01 to 0.03 µM	27.7	10 to 30 nM	0.01 to 0.03 µM	33	1 to 10 nM	20.5	30 to 60 nM	7.42	–	Ki (C1b domain of human PKCθ): 10 to 30 nM; IC50 (HL-60 (Leukemia); [3]): 10 to 30 nM; IC50 (Namalwa (Lymphoma)): 1 to 10 nM
CC1=C[C@H]2[C@@]3(O)[C@H](C)C[C@]4(OC(=O)[C@@H](N)C(C)(C)C)[C@H]([C@@H]3C=C(CO)C[C@]2(O)C1=O)C4(C)C	60 to 100 nM	≤ 1500 nM	–	–	–	0.2 to 0.6 µM	–	–	–	–	–	–	Ki (C1b domain of human PKCδ): 10 to 30 nM
CC(=O)O[C@@]12C[C@@H](C)[C@@]3(O)[C@@H](C=C(CO)C[C@]4(O)C(=O)C(C)=C[C@@H]34)[C@@H]1C2(C)C [Compound K101, prostratin, reference compound]	–	–	0.2 to 0.6 µM	–	200 to 600 nM	–	–	–	–	–	–	–	phosphorylation of PKCμ, PKCδ and Erk1/2 ([2]; 1 μM): induced high levels of phosphorylation; IC50 (PANC1 cells; PANC1, spheres counted after 3-4 weeks): 5500 nM; IC50 (Mino (Lymphoma); 96 h): 100 to 600 nM; IC50 (Namalwa (Lymphoma); 96 h): 100 to 600 nM
